Measured values from US10947216B2, “Amide compounds and method for making and using” (Rigel Pharmaceuticals, Inc., priority 2016, dated 2021).
Where a name gives a salt, the structure may show the parent alone.

Assays:
[1] = test system: IL-23 (p19/p40); assay: IL23-p19 ELISA, dendritic cells (DC differentiated from human PBMC, IFNγ primed), LPS stimulated; type: cell-based; settings: Dendritic cell, human PBMC-derived dendritic cells, 1 h compound pre-incubation, LPS 1 μg/ml 18 hours, 10 pt
Procedure: Compound Screening Using DC Cells
I. Differentiation of PBMC's to DC Cells:
After 2 hours, the media including floating cells was aspirated out carefully and 12 ml of fresh RPMI media (10% FBS) containing GMCSF (100 ng/ml) and IL4 (20 ng/ml) was added, and the flask was kept in a 37° C. incubator for 7 days.
After 3 days, fresh GMCSF (100 ng/ml) and IL4 (20 ng/ml) were added to the flask and the incubation continued. After 7 days, the fully differentiated cells were harvested by spinning down (1200 rpm/5 min) and aspirating the media. The cells were suspended in fresh RPMI media (10% FBS) containing 50 ng/ml IFNγ (1000 U/ml) and then plated (50K/well in 100 μl) onto a white clear bottom 96 well plate and left in a 37° C. incubator for 24 hours.
II. Addition of Compounds:
After 24 hours incubation, 100 μl of RPMI media was added containing 2× concentrated test compound per well to the above cell-culture media (final concentration becomes 1×) and the plates were pre-incubated for 1 hour at 37° C. before stimulating with LPS.
The mixture was shaken and incubated the plates at 37° C. for an additional 18 hours.
155 μl of the supernatant was harvested from each well carefully (without the tip touching the bottom of the well) and to the remaining 50 μl/well of the cell culture plate was added 50 μl of Cell Titer Glo reagent. The mixture was incubated for 1-2 minutes on a shaker and the plate was read for luminescence intensity to determine the compound cytotoxicity. The cell culture supernatant collected above was used to carry out IL23 ELISA (65 μl—Supernatant) and IL10 ELISA (90 μl—Supernatant) as described below.
Human IL-23 (p19/p40) ELISA Protocol (e-Biosciences)
To 10.5 ml PBS add 50 μl of anti-IL23 (p19) was added capture antibody (2.5 μg/ml). The mixture was mixed well and 100 μl of the coating solution was added to each well of the 96 well white plates from Pierce. The wells were covered and incubated overnight at 4° C.
The anti-IL23 (p19)-antibody-coated plates were washed 2× using TBST (use plate washer) and blocked using 200 μl of 0.5% Casein for 1.5-2 hours at room temperature with shaking.
Addition of Supernatant and Detection:
The plates were washed 2× using TBST and the supernatant was transferred (65 μl/well) to the above pre-blocked/IL23(p19)-antibody-coated 96 well plate, and incubated at room temperature for 1.5 hours with shaking.
The plates were washed 4× using TBST (plate washer) and 100 μl/well detection antibody solution prepared from 2 μl of biotin labeled anti-IL-12 (p40/p70) antibody in 11 ml 1% BSA/PBS solution (1-5000 dilution) was added. The plates were incubated for 1 hour with shaking at Room temperature.
Again, the plates were washed 4× with TBST and 100 μl of HRP labeled Streptavidin (R&D Systems) solution (10 μl/10 ml 1% BSA solution) was added, and the plates were incubated at room temperature for another 45 minutes with shaking.
After 45 minutes, the plates were washed with TBST 4× and 100 μl/well Super Signal ELISA Pico Chemiluminescent Substrate from Pierce (3.5 ml A+3.5 ml B+3.5 ml MQ water) was added. The plates were shaken for 1-2 minutes then read on a plate reader.

[2] = test system: IL-23p19; assay: LPS Induced IL23p19 in THP-1 Cells (with IFNγ Primed) Assay; type: cell-based, human; settings: Homo sapiens, THP-1, THP-1 cells, IFNγ (50 ng/mL) primed, 1 hour compound pre-incubation, LPS 1 ug/mL 18 hours, 10 pt; read-out: IL23-p19 ELISA, THP1-IFNy, LPS, 10 pt EC50
Procedure: LPS Induced IL23p19 in THP-1 Cells (with IFNγ Primed) Assay
Method THP-1 Cells Stimulation:
On day 1, 50K/well THP-1 cells were seeded and primed with IFNγ (50 ng/mL) in 384-well plates for about 18 hours in RPMI media with 10% FBS. […] 50 μL/well 2× compound was added to 50 μL/well THP-1 cells (with IFNγ primed) in duplicate in 384 well tissue culture plates. […] Day 3, after stimulation for 18 hours at 37° C., 5% CO2, the assay plate was centrifuged and 70 μL/well supernatant was harvested. IL-23p19 protein in 70 μL/well of supernatant was measured by sandwich ELISA, and 25 μl/well Cell Titer Glo reagent was added to the remaining cells to measure compound toxicity.
Human IL-23p19 Sandwich ELISA:
Maxisorp immuno ELISA plates were pre-coated with 25 μL/well of anti-IL-23p19 capture antibody (2.5 ug/mL) in PBS overnight at room temperature. After washing with 1×PBST, the plates were blocked using 100 μL/well of 1% BSA in PBS for 2 hours at room temperature. The plates were washed three times with 1×PBST and 70 μL/well supernatant were added. The plates were incubated at room temperature for 2 hours with shaking and washed three times with 1×PBST. 25 μL/well of biotin labeled anti-IL-12(p40/p70) detection antibody (100 ng/mL) in PBS with 1% BSA was added and the plates were incubated at room temperature for 2 hours with shaking. After washing three times with 1×PBST, 25 μL/well of streptavidin-HRP (1:200) in PBS with 1% BSA was added and the plates were incubated at room temperature for 20 minutes with shaking. The plates were washed three times with 1×PBST and 25 μL/well of Super Signal ELISA Pico Chemiluminescent Substrate were added. The plates were read with a luminometer, and the chemiluminescence values were entered into Athena (Rigel) for curve fitting, EC50 calculation, and database storage.

Row | SMILES | EC50 [1] | EC50 [2]
1 | COCCOCCn1cc(NC(=O)c2cccc(-c3cncc(C)c3)n2)c(-c2ccccn2)n1 [Compound I-149, N-(1-(2-(2-methoxyethoxy)ethyl)-3-(pyridin-2-yl)-1H-pyrazol-4-yl)-5′-methyl-[2,3′-bipyridine]-6-carboxamide formate] | 1420 nM | 1200 nM
2 | Cc1cncc(-c2cccc(C(=O)Nc3cn(C4COC4)nc3-c3ccccn3)n2)c1 [Compound I-114, 5′-methyl-N-(1-(oxetan-3-yl)-3-(pyridin-2-yl)-1H-pyrazol-4-yl)-[2,3′-bipyridine]-6-carboxamide] | 2330 nM | 1760 nM
3 | Cn1cc(NC(=O)c2cccc(-c3cc[nH]c3)n2)c(-c2ccccn2)n1 [Compound I-11, N-(1-methyl-3-(pyridin-2-yl)-1H-pyrazol-4-yl)-6-(1H-pyrrol-3-yl)picolinamide] | 4120 nM | 5900 nM
4 | Cn1cc(NC(=O)c2nccc(-c3cn[nH]c3)n2)c(-c2ccccn2)n1 [Compound I-124, N-(1-methyl-3-(pyridin-2-yl)-1H-pyrazol-4-yl)-4-(1H-pyrazol-4-yl)pyrimidine-2-carboxamide] | 1540 nM | 6640 nM
5 | O=C(Nc1cn(C2COC2)nc1-c1ccccn1)c1cccc(-c2cncc(F)c2)n1 [Compound I-131, 5′-fluoro-N-(1-(oxetan-3-yl)-3-(pyridin-2-yl)-1H-pyrazol-4-yl)-[2,3′-bipyridine]-6-carboxamide] | 12800 nM | 6620 nM
6 | COc1ccc(-c2nn(C)cc2NC(=O)c2cccc(-c3cncc(C)c3)n2)nc1 [Compound I-69, N-(3-(5-methoxypyridin-2-yl)-1-methyl-1H-pyrazol-4-yl)-5′-methyl-[2,3′-bipyridine]-6-carboxamide] | 1500 nM | 1200 nM
7 | NC(=O)c1cncc(-c2cccc(C(=O)Nc3cn(C4COC4)nc3-c3ccccn3)n2)c1 [Compound I-133, N6-(1-(oxetan-3-yl)-3-(pyridin-2-yl)-1H-pyrazol-4-yl)-[2,3′-bipyridine]-5′,6-dicarboxamide] | 6540 nM | 11000 nM
8 | COc1ccc(-c2nn(C)cc2NC(=O)c2cccc(-c3cncc(NC(C)C)c3)n2)nc1 [Compound I-71, 5′-(isopropylamino)-N-(3-(5-methoxypyridin-2-yl)-1-methyl-1H-pyrazol-4-yl)-[2,3′-bipyridine]-6-carboxamide] | 415 nM | 300 nM
9 | Cc1cncc(-c2cccc(C(=O)Nc3cn(CCN4CCN(C)CC4)nc3-c3ccccn3)n2)c1 [Compound I-87, 5′-methyl-N-(1-(2-(4-methylpiperazin-1-yl)ethyl)-3-(pyridin-2-yl)-1H-pyrazol-4-yl)-[2,3′-bipyridine]-6-carboxamide] | 2000 nM | 75.4 nM
10 | Cn1cc(NC(=O)c2cccc(-c3cncc(NC(C)(C)C)c3)n2)c(-c2ccccn2)n1 [Compound I-29, 5′-(tert-butylamino)-N-(1-methyl-3-(pyridin-2-yl)-1H-pyrazol-4-yl)-[2,3′-bipyridine]-6-carboxamide] | 910 nM | 16400 nM
11 | COCCOCCn1cc(NC(=O)c2cccc(Nc3cc(C)ncc3C)n2)c(-c2ccccn2)n1 [Compound I-157, 6-((2,5-dimethylpyridin-4-yl)amino)-N-(1-(2-(2-methoxyethoxy)ethyl)-3-(pyridin-2-yl)-1H-pyrazol-4-yl)picolinamide formate] | 10900 nM | 
12 | Cn1cc(NC(=O)c2cccc(-c3cncc(C(N)=O)c3)n2)c(-c2ccccn2)n1 [Compound I-40, N6-(1-methyl-3-(pyridin-2-yl)-1H-pyrazol-4-yl)-[2,3′-bipyridine]-5′,6-dicarboxamide] | 2990 nM | 
13 | CC(C)Oc1cncc(-c2cccc(C(=O)Nc3cn(C)nc3-c3ccccn3)n2)c1 [Compound I-22, 5′-isopropoxy-N-(1-methyl-3-(pyridin-2-yl)-1H-pyrazol-4-yl)-[2,3′-bipyridine]-6-carboxamide] | 8560 nM | 
